# Measurements reported in ChEMBL document CHEMBL1157604 (J Med Chem, 2010).
# Active and inactive are the calls of the source. The calls are words filed in the database; no cut-off is given here.
# What was measured:
# [1] = target: Neuronal acetylcholine receptor; alpha3/beta4 (Homo sapiens) (UniProt P30926+P32297); assay: Intrinsic activity at alpha3beta4 nAChR receptor in human SH-SY5Y cells assessed as 86Rb+ efflux at 5 to 100 uM by liquid scintillation counting; assay type: cell-based
# [2] = target: Neuronal acetylcholine receptor; alpha4/beta2 (Homo sapiens) (UniProt P17787+P43681); assay: Intrinsic activity at human alpha4beta2 nAChR receptor expressed in human SH-SY5Y cells assessed as 86Rb+ efflux at 5 to 100 uM by liquid scintillation counting; assay type: cell-based
# [3] = target: Neuronal acetylcholine receptor; alpha4/beta4 (Homo sapiens) (UniProt P30926+P43681); assay: Intrinsic activity at human alpha4beta4 nAChR receptor expressed in human SH-SY5Y cells assessed as 86Rb+ efflux at 5 to 100 uM by liquid scintillation counting; assay type: cell-based
# [4] = target: Acetylcholine receptor; alpha1/beta1/delta/gamma (Homo sapiens) (UniProt P02708+P07510+P11230+Q07001); assay: Intrinsic activity at alpha-1-beta-1-gamma-delta nAChR receptor expressed in human TE671/RD cells assessed as 86Rb+ efflux at 5 to 100 uM by liquid scintillation counting; assay type: cell-based
# [5] = species: Mus musculus; assay: Antinociceptive activity in ICR mouse D'Amour and Smith model of pain assessed as inhibition of nicotine-induced response by tail-flick test; assay type: functional
# [6] = species: Mus musculus; assay: Antinociceptive activity in ICR mouse assessed as inhibition of nicotine-induced response by hotplate test; assay type: functional
# [7] = species: Mus musculus; assay: Effect on behavioral activity in ICR mouse assessed as inhibition of nicotine-induced locomotory response by locomotor assay; assay type: functional
# [8] = species: Mus musculus; assay: Effect on body temperature in ICR mouse assessed as inhibition of nicotine-induced hypothermic response; assay type: functional
# [9] = target: Sodium-dependent dopamine transporter (Homo sapiens, UniProt Q01959); assay: Inhibition of [3H]dopamine uptake at human DAT expressed in HEK293 cells; assay type: cell-based
# Sequence of Sodium-dependent dopamine transporter (Q01959 whole entry): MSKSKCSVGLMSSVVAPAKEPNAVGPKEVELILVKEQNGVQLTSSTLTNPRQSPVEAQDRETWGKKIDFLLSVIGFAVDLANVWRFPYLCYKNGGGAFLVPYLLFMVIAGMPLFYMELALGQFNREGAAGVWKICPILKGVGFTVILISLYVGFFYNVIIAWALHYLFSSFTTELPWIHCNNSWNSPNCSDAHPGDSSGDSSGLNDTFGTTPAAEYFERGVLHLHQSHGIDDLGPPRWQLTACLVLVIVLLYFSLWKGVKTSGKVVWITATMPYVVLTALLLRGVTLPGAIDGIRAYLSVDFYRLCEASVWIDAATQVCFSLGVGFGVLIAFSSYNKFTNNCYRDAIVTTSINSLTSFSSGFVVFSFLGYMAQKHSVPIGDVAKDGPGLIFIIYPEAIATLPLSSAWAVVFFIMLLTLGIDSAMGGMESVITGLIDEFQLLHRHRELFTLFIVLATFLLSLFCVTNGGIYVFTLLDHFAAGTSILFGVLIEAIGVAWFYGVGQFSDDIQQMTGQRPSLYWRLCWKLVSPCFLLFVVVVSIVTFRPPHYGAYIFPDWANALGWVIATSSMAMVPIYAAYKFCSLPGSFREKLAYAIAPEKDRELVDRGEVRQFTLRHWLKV
# [10] = target: Sodium-dependent noradrenaline transporter (Homo sapiens, UniProt P23975); assay: Inhibition of [3H]norepinephrine uptake at human NET expressed in HEK293 cells; assay type: cell-based
# Sequence of Sodium-dependent noradrenaline transporter (P23975 whole entry): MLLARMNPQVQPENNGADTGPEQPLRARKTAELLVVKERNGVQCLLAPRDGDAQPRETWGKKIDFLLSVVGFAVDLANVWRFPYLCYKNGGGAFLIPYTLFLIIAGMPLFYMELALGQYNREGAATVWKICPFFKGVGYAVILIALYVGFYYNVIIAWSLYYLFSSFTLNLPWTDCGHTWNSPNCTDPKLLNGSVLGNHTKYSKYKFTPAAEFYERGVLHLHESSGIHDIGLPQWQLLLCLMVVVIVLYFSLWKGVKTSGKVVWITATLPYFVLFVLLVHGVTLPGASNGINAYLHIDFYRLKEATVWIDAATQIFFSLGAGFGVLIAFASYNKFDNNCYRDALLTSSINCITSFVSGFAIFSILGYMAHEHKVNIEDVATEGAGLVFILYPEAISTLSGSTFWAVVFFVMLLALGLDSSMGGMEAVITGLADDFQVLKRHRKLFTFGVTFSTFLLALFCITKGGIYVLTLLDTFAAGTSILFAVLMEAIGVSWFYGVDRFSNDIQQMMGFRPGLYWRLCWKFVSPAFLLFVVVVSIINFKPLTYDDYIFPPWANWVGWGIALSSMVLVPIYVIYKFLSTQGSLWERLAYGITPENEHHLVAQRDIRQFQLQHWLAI
# [11] = target: Sodium-dependent serotonin transporter (Homo sapiens, UniProt P31645); assay: Inhibition of [3H]serotonin uptake at human SERT expressed in HEK293 cells; assay type: cell-based
# Sequence of Sodium-dependent serotonin transporter (P31645 whole entry): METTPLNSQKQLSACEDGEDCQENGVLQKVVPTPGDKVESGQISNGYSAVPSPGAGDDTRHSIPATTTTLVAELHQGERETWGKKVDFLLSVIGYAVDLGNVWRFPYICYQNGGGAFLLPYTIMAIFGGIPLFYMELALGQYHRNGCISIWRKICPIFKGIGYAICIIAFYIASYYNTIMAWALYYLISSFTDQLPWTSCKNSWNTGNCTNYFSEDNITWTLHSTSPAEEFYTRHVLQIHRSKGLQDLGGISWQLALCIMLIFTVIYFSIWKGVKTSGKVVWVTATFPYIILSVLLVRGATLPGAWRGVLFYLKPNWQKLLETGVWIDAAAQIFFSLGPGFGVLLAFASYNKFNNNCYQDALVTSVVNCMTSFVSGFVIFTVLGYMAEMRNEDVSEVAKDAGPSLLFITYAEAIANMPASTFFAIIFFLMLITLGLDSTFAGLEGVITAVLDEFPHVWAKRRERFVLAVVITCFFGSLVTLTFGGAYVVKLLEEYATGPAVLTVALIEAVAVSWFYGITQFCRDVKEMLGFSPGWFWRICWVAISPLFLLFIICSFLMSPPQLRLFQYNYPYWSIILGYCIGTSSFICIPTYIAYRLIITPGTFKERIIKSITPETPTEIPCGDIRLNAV
SMILES,Activity [1],Activity [2],Activity [3],Activity [4],AD50 [5],AD50 [6],AD50 [7],AD50 [8],IC50 [9] [µM],IC50 [10] [µM],IC50 [11] [µM]
CC(NC1CCCC1)C(=O)c1cccc([N+](=O)[O-])c1 (stereo unspecified),inactive,inactive,inactive,inactive,inactive,inactive,inactive,inactive,–,–,–
CC(NC(C)(C)C)C(=O)c1ccc(Cl)cc1 (stereo unspecified),inactive,inactive,inactive,inactive,0.43 mg/kg,inactive,31 mg/kg,32 mg/kg,1.09,2.07,9.8
CCCC(NC(C)(C)C)C(=O)c1cccc(Cl)c1 (stereo unspecified),inactive,inactive,inactive,inactive,10 mg/kg,inactive,inactive,inactive,0.056,0.37,–
Cc1cc(C(=O)C(C)NC(C)(C)C)ccc1Br (stereo unspecified),inactive,inactive,inactive,inactive,0.015 mg/kg,inactive,inactive,inactive,–,7.25,–
COc1cccc(C(=O)C(C)NC(C)(C)C)c1 (stereo unspecified),inactive,inactive,inactive,inactive,1.6 mg/kg,inactive,inactive,inactive,3.62,–,–
CC(CNC(C)(C)C)C(=O)c1cccc(Cl)c1 (stereo unspecified),inactive,inactive,inactive,inactive,10.5 mg/kg,inactive,inactive,16 mg/kg,–,–,–
CC(NC(C)(C)C)C(=O)c1cccs1 (stereo unspecified),inactive,inactive,inactive,inactive,0.077 mg/kg,inactive,inactive,inactive,–,–,–
CC(C(=O)c1cccc(Cl)c1)N(C)C(C)(C)C (stereo unspecified),inactive,inactive,inactive,inactive,0.46 mg/kg,8.7 mg/kg,inactive,inactive,6,1.57,–
CC(NC1CCCC1)C(=O)c1cccc(F)c1 (stereo unspecified),inactive,inactive,inactive,inactive,inactive,inactive,inactive,inactive,0.693,2.85,–
CC(NC(C)(C)C)C(=O)c1cccc(Cl)c1 (stereo unspecified) [BUPROPION],inactive,inactive,inactive,inactive,1.2 mg/kg,15 mg/kg,–,9.2 mg/kg,–,–,–
CC(NC(C)(C)C)C(=O)c1cc(Cl)cc(Cl)c1 (stereo unspecified),inactive,inactive,inactive,inactive,0.028 mg/kg,4.3 mg/kg,inactive,inactive,–,14,–
CCC(NC(C)(C)C)C(=O)c1cccc(Cl)c1 (stereo unspecified),inactive,inactive,inactive,inactive,0.5 mg/kg,inactive,11.7 mg/kg,inactive,0.209,–,–
CC(C(=O)c1cccc(Cl)c1)N(C)C (stereo unspecified),inactive,inactive,inactive,inactive,5.2 mg/kg,inactive,inactive,inactive,1.75,1.52,–
CC(NC(C)(C)C)C(=O)c1cccc([N+](=O)[O-])c1 (stereo unspecified),inactive,inactive,inactive,inactive,inactive,inactive,inactive,inactive,–,–,–
CC(NC1CCCC1)C(=O)c1cccc(Br)c1 (stereo unspecified),inactive,inactive,inactive,inactive,inactive,inactive,inactive,inactive,0.845,2.53,–
Cc1ccc(C(=O)C(C)NC(C)(C)C)cc1Cl (stereo unspecified),inactive,inactive,inactive,inactive,0.2 mg/kg,7.2 mg/kg,11 mg/kg,10 mg/kg,0.41,2.04,–
Cc1cccc(C(=O)C(C)NC(C)(C)C)c1 (stereo unspecified),inactive,inactive,inactive,inactive,0.05 mg/kg,6.8 mg/kg,4.3 mg/kg,7.8 mg/kg,–,6.2,–
CC(C(=O)c1cccc(Cl)c1)N1CCCCC1 (stereo unspecified),inactive,inactive,inactive,inactive,0.05 mg/kg,inactive,inactive,inactive,0.852,2.52,–
Cc1ccc(C(=O)C(C)NC(C)(C)C)cc1 (stereo unspecified),inactive,inactive,inactive,inactive,0.09 mg/kg,7.75 mg/kg,11.8 mg/kg,8.8 mg/kg,1.95,–,–
CC(NC1CCCC1)C(=O)c1cccc(Cl)c1 (stereo unspecified),inactive,inactive,inactive,inactive,0.014 mg/kg,inactive,inactive,inactive,–,–,–
Cc1cccc(C(=O)C(C)NC2CCCC2)c1 (stereo unspecified),inactive,inactive,inactive,inactive,inactive,inactive,inactive,inactive,0.842,8.7,–
CC(NC(C)(C)C)C(=O)c1ccc(F)c(F)c1 (stereo unspecified),inactive,inactive,inactive,inactive,0.05 mg/kg,inactive,inactive,inactive,7.98,6.48,–
CC(NC(C)(C)C)C(=O)c1cccc(Br)c1 (stereo unspecified),inactive,inactive,inactive,inactive,0.12 mg/kg,14.9 mg/kg,27.1 mg/kg,11.5 mg/kg,0.511,5.6,–
CCCC(NC(C)(C)C)C(=O)c1ccc(Cl)c(Cl)c1 (stereo unspecified),inactive,inactive,inactive,inactive,0.13 mg/kg,15 mg/kg,inactive,17.5 mg/kg,0.031,–,2.3
CC(NC(C)(C)C)C(=O)c1cccc(F)c1 (stereo unspecified),inactive,inactive,inactive,inactive,inactive,inactive,inactive,inactive,2.32,6.5,–
CC(C(=O)c1cccc([N+](=O)[O-])c1)N1CCCCC1 (stereo unspecified),inactive,inactive,inactive,inactive,inactive,inactive,inactive,inactive,10,–,–
